Data as given in patent US7771977B2, “Alkane polyol dehydrogenase” (National University Corporation Nara Institute of Science …, priority 2006, dated 2010).

B1: Superdex 200: purified alkane polyol dehydrogenase of Pichia ofunaensis (SEQ ID NO: 1) after Superdex 200 gel filtration (protein, listed as Pichia ofunaensis)
chain: MKGLLYYKTGDIRYSEDVEEPEILSSHDVKIRVKFCGICGTDLKEYTYEGGPLFLPKPGSSDKISGLELPLCPGHEFCGVVEEVGESVTRVKPGDRVAVEATTHCSDAVHYGVHDMELCVACKNGSPNCCTHLSFCGLGGASGGFAEKVVYGEEHMLKLPDSIPFDIGALIEPLAVAWHAVECAKFKPGSTALVLGGGPIGLATILALQGHQAGRIVCSEPACIRREYAAKFGAEVFDPSQHDDVIHELKALLPENGGFDASFDCSGVPQTFTTSIEALAPGGMAVNVAIWGDHAIDFGAMCLTYQEKTCTGSMCYTVKDFEEVINALDKGLISISKARLMITGKVNLKDGVELGFKQLIEHKETNIKILVTPDEV

Tests used:
[1] = system: alkane polyol dehydrogenase (purified enzyme); type: biochemical, Pichia ofunaensis; details: purified enzyme; substrate 100 mM; 2 mM NAD+; pH 8.0; 25° C.
Procedure: The reaction solutions were prepared using plural substrates with varied concentrations. Each solution contained a substrate, 2 mM NAD^+, and an enzyme, and was allowed to react in a 100 mM potassium phosphate buffer solution (pH 8.0) at 25° C. Then, changes in absorbance (molar absorption coefficient 6,220 M^−1·cm^−1) at 340 nm due to the NADH formation were measured. 1 U is defined as an enzyme amount for catalyzing 1 μmol NADH formation per minute.
The alkane polyol dehydrogenase obtained in Example 1 was utilized to measure the enzyme activities in the following manner.
1 U was defined as the amount of enzyme that catalyzes the formation of 1 μmol of NADH per minute.
Measurement was performed in the same manner as in the activity measurements described earlier in 4-1.
Such activity was measured by causing a reaction mixture containing 5 mM (R)-1,2-octanediol, 2 mM NAD^+ and enzyme to react in a 100 mM potassium phosphate buffer solution (pH 8.0) at 25° C., then observing the change, due to NADH formation, of absorbance (molecular absorption coefficient 6,220 M^−1 ·cm^−1) at 340 nm. 1 U was defined as the amount of enzyme that catalyzes the formation of 1 μmol of NADH per minute.

[2] = system: Pichia ofunaensis AKU4328 cells; experiment: Glycerol dehydrogenation activity of glycerol-induced Pichia ofunaensis cells; type: biochemical
Text: Pichia ofunaensis AKU4328 was pre-cultured in medium containing 4 g/L of ammonium chloride, 1 g/L of phosphoric acid 2 hydrogen 1 potassium, 1 g/L of phosphoric acid 1 hydrogen 2 potassium, 0.5 g/L of magnesium sulfate 7 hydrate, 1 g/L of yeast extract, and 1% glucose. Ten hours after the initiation of the main culture in induction medium consisting of a basal medium with 1% glycerol, the cells were harvested. Since the specific activity of glycerol was 3.6 U/mg (protein), it was confirmed that the same protein as the purified enzyme obtained in Example 1 was expressed by 7%.
In relation to the measurement of the enzyme activity, a reaction mixture containing a […] ammonium chloride/ammonia buffer (pH 9.0), 100 mM glycerol, 2.0 mM NAD^+ and an enzyme solution was subjected to a reaction at 25° C.; subsequently, the change, due to NADH formation, of absorbance (molecular absorption coefficient 6,220 M^−1 ·cm^−1) at 340 nm was measured. 1 U refers to the amount of enzyme that catalyzes the formation of 1 μmol of NADH per minute. […]
The activity at this time was measured by causing a reaction mixture containing a 100 mM ammonium chloride/ammonia buffer (pH 9.0), 100 mM glycerol, 2.0 mM NAD^+ and an enzyme solution to react at 25° C., then observing the change, due to NADH formation, of absorbance (molecular absorption coefficient 6,220 M^−1·cm^−1) at 340 nm. […]

[3] = Enzyme activity of purification fractions with 100 mM glycerol; type: biochemical, Pichia ofunaensis; details: 2 mM NAD+, pH 8.0, 25° C., purification step
Procedure: The entire purification process was performed at 4° C., unless otherwise indicated. The cells (20 g wet cell weight) prepared as above in 1-1, were suspended in buffer solution A (100 mM potassium phosphate buffer solution (pH 7.0) and 1 mM dithiothreitol (hereinafter simply referred to as DTT)). The resulting suspension was mixed with 100 ml of glass beads, and disrupted with a bead beater (produced by BioSpec, Bartlesville, USA).
The obtained cell extract was allowed to adsorb to a DEAE-cellulose column (diameter 4.0 cm×height 3.5 cm, produced by Wako Pure Chemical Ind. Ltd., Osaka) that was pre-equilibrated with buffer solution A. Thereafter, the gradient of 0-1 M potassium chloride was applied to buffer solution A to elute protein at a flow rate of 1 ml/min.
The eluted active fractions were collected, and dialyzed against buffer solution A containing 40% saturated ammonium sulfate. […]
In connection with the enzyme activity, a reaction mixture containing 100 mM glycerol, 2 mM NAD^+ and enzyme was allowed to react in a 100 mM potassium phosphate buffer solution (pH 8.0) at 25° C.; subsequently, the change, due to NADH formation, of absorbance (molar absorption coefficient 6,220 M^−1·cm^−1) at 340 nm was measured and analyzed. […]

Molecule | Oxidative Activity [1] [U/mg] | specific activity of the cells against glycerol ([2]; 1% glycerol induction, 100 mM glycerol, 2.0 mM NAD+, pH 9.0, 25° C.) | glycerol dehydrogenation activity per 1 kg of wet cell weight ([2]; per 1 kg wet cell weight) | Specific Activity [3] [U/mg]
OCC(O)CO [Glycerol] | 39.1 | 3.6 U/mg (protein) | 1,300,000 U | –
B1 | – | – | – | 51
